The results in this text go back to PubChem BioAssay AID212 (DTP/NCI, 2004).

The structures appear in SMILES notation. Values joined by “and” are separate entries in the source; they are usually repeats but may differ in a detail not shown here. Equal entries are not always repeated. Inconclusive results are not listed.

In this assay the test system is BDF1 mice, colon carcinoma 38 sc, T/C %. Nature of the assay: NCI In Vivo Anticancer Drug Screen. Data for tumor model Colon Carcinoma 38 (subcutaneous) in B6D2F1 (BDF1) mice. As to conditions: endpoint: median tumor weight (est.), higher = larger tumour. As to the method: The antitumor activity of compounds was measured in mice bearing transplantable tumors. Survival or tumor size were measured and the results are expressed as the measurement made in the treated group (T) divided by the measurement made in the vehicle treated control group (C). The tumor model used in this assay is Colon Carcinoma 38 (subcutaneous) in B6D2F1 (BDF1) mice

[1] abbreviates: dose: 25.0 mg/kg/injection, schedule: Q07DX002 (ip), vehicle: saline.
The mark [2] stands for this setting: dose: 25.0 mg/kg/injection, schedule: Q07DX002 (ip), vehicle: suspension in saline.
Setting [3] is: dose: 50.0 mg/kg/injection, schedule: Q07DX002 (ip), vehicle: saline.
[4] abbreviates: dose: 50.0 mg/kg/injection, schedule: Q07DX002 (ip), vehicle: suspension in saline.
The mark [5] stands for this setting: dose: 100.0 mg/kg/injection, schedule: Q07DX002 (ip), vehicle: saline.
The mark [6] stands for this setting: dose: 100.0 mg/kg/injection, schedule: Q07DX002 (ip), vehicle: suspension in saline.
[7] abbreviates: dose: 200.0 mg/kg/injection, schedule: Q07DX002 (ip), vehicle: saline.
The mark [8] stands for this setting: dose: 25.0 mg/kg/injection, schedule: Q07DX002 (ip), vehicle: saline with Tween-80.
[9] abbreviates: dose: 50.0 mg/kg/injection, schedule: Q07DX002 (ip), vehicle: saline with Tween-80.
Setting [10] is: dose: 100.0 mg/kg/injection, schedule: Q07DX002 (ip), vehicle: saline with Tween-80.
[11] abbreviates: dose: 200.0 mg/kg/injection, schedule: Q07DX002 (ip), vehicle: saline with Tween-80.
[12] abbreviates: dose: 400.0 mg/kg/injection, schedule: Q07DX002 (ip), vehicle: saline with Tween-80.

Regarding `NC(=S)N/N=C/c1ccc(O)cn1`, the T/C reads like this: under setting [1], 123 % of control; under setting [2], 83 % of control; under setting [3], 67 % of control; under setting [4], 72 % of control; under setting [5], 67 % of control; under setting [6], 108 % of control. Besides, the T/C runs as follows: under setting [7], 72 % of control; (dose: 400.0 mg/kg/injection, schedule: Q07DX002 (ip), vehicle: saline) 71 % of control; (dose: 400.0 mg/kg/injection, schedule: Q07DX002 (ip), vehicle: suspension in saline) 105 % of control; (dose: 800.0 mg/kg/injection, schedule: Q07DX002 (ip), vehicle: saline) 67 % of control; (dose: 800.0 mg/kg/injection, schedule: Q07DX002 (ip), vehicle: suspension in saline) 110 % of control.
On to `COC(C(=O)C(O)C(C)O)C1Cc2cc3cc(OC4CC(OC(C)=O)C(OC5CC(O)C(OC)C(C)O5)C(C)O4)cc(O)c3c(O)c2C(=O)C1OC1CC(OC2CC(OC3CC(C)(O)C(OC(=O)C(C)C)C(C)O3)C(O)C(C)O2)C(O)C(C)O1` (configuration not stated), for which the T/C (dose: 0.12 mg/kg/injection, schedule: Q07DX002 (ip), vehicle: saline with Tween-80) was 113 % of control; the T/C (dose: 0.25 mg/kg/injection, schedule: Q07DX002 (ip), vehicle: saline) is 81 % of control; the T/C (dose: 0.5 mg/kg/injection, schedule: Q07DX002 (ip), vehicle: saline with Tween-80) was 113 % of control; the T/C (dose: 0.5 mg/kg/injection, schedule: Q07DX002 (ip), vehicle: saline) is 78 % of control; the T/C (dose: 1.0 mg/kg/injection, schedule: Q07DX002 (ip), vehicle: saline with Tween-80) is 59 % of control; the T/C (dose: 1.0 mg/kg/injection, schedule: Q07DX002 (ip), vehicle: saline) is 89 % of control. The T/C was 55 % of control (dose: 2.0 mg/kg/injection, schedule: Q07DX002 (ip), vehicle: saline with Tween-80); 124 % of control (dose: 2.0 mg/kg/injection, schedule: Q07DX002 (ip), vehicle: saline); 48 % of control (dose: 4.0 mg/kg/injection, schedule: Q07DX002 (ip), vehicle: saline with Tween-80); 92 % of control (dose: 4.0 mg/kg/injection, schedule: Q07DX002 (ip), vehicle: saline).
With `Cc1c2cc[n+](C)cc2c(C)c2c1[nH]c1ccc(O)cc12`, the T/C was 119 % of control (dose: 0.12 mg/kg/injection, schedule: Q07DX002 (ip), vehicle: water); 62 % of control (dose: 0.25 mg/kg/injection, schedule: Q07DX002 (ip), vehicle: water); 69 % of control (dose: 0.5 mg/kg/injection, schedule: Q07DX002 (ip), vehicle: water); 67 % of control (dose: 0.63 mg/kg/injection, schedule: Q07DX002 (ip), vehicle: water); 123 % of control (dose: 1.0 mg/kg/injection, schedule: Q07DX002 (ip), vehicle: water); 52 % of control (dose: 1.25 mg/kg/injection, schedule: Q07DX002 (ip), vehicle: water). For the same compound, the T/C by setting is: (dose: 1.5 mg/kg/injection, schedule: Q07DX002 (ip), vehicle: water) 116 % of control; (dose: 2.5 mg/kg/injection, schedule: Q07DX002 (ip), vehicle: water) 72 % of control; (dose: 3.0 mg/kg/injection, schedule: Q07DX002 (ip), vehicle: water) 122 % of control; (dose: 4.0 mg/kg/injection, schedule: Q07DX002 (ip), vehicle: water) 70 % of control; (dose: 5.0 mg/kg/injection, schedule: Q07DX002 (ip), vehicle: water) 71 % of control.
For `O=CC(S)CO` (configuration not stated), the T/C is, setting by setting: (dose: 12.5 mg/kg/injection, schedule: Q07DX002 (ip), vehicle: suspension in saline) 76 % of control; under setting [2], 95 % of control; under setting [4], 113 % of control; (dose: 200.0 mg/kg/injection, schedule: Q07DX002 (ip), vehicle: suspension in saline) 97 % of control.
As for `Cc1ccc(S(=O)(=O)OCOS(=O)(=O)c2ccc(C)cc2)cc1`, the T/C is 61 % of control (dose: 100.0 mg/kg/injection, schedule: Q07DX002 (ip), vehicle: Klucel (hydroxypropylcellulose) (HPC)); 104 % of control (dose: 200.0 mg/kg/injection, schedule: Q07DX002 (ip), vehicle: Klucel (hydroxypropylcellulose) (HPC)); 80 % of control and 93 % of control (dose: 400.0 mg/kg/injection, schedule: Q07DX002 (ip), vehicle: Klucel (hydroxypropylcellulose) (HPC)); 19 % of control and 27 % of control (dose: 1600.0 mg/kg/injection, schedule: Q07DX002 (ip), vehicle: Klucel (hydroxypropylcellulose) (HPC)).
Turning to `NC(=S)N/N=C/c1ccc(OC(=O)COc2ccccc2)cn1`, the T/C by setting is: under setting [8], 88 % of control; under setting [9], 88 % of control; under setting [10], 55 % of control; under setting [11], 72 % of control; under setting [12], 57 % of control.
For `CC1(CO)C(O)CCC2(C)C1CCC1CC3CC12CCC3(O)CO` (configuration not stated), the T/C reads like this: (dose: 12.5 mg/kg/injection, schedule: Q07DX002 (ip), vehicle: saline with Tween-80) 120 % of control; under setting [8], 103 % of control; under setting [9], 100 % of control; under setting [10], 124 % of control; under setting [11], 77 % of control; under setting [12], 89 % of control.
For `CCN(CC)CCNc1ccc(C)c2sc3ccccc3c(=O)c12`, the T/C is 47 % of control under setting [1]; 78 % of control under setting [3]; 45 % of control under setting [4]; 105 % of control under setting [5]; 24 % of control under setting [6]; 16 % of control under setting [7].
Turning to `CC(=O)OCC1OC(OC(C)=O)C(NC(=O)N(CCCl)N=O)C(OC(C)=O)C1OC(C)=O` (configuration not stated), the T/C is, setting by setting: (dose: 0.75 mg/kg/injection, schedule: Q07DX002 (ip), vehicle: Klucel (hydroxypropylcellulose) (HPC)) 100 % of control; (dose: 1.5 mg/kg/injection, schedule: Q07DX002 (ip), vehicle: Klucel (hydroxypropylcellulose) (HPC)) 82 % of control and 96 % of control; (dose: 3.0 mg/kg/injection, schedule: Q07DX002 (ip), vehicle: Klucel (hydroxypropylcellulose) (HPC)) 64 % of control.
On to `CCOC(=O)NC1=C(N2CC2)C(=O)C(NC(=O)OCC)=C(N2CC2)C1=O`, for which the T/C is, setting by setting: (dose: 0.78 mg/kg/injection, schedule: Q07DX002 (ip), vehicle: saline) 98 % of control; (dose: 0.78 mg/kg/injection, schedule: Q07DX002 (ip), vehicle: suspension in saline) 102 % of control; (dose: 1.56 mg/kg/injection, schedule: Q07DX002 (ip), vehicle: saline) 94 % of control; (dose: 1.56 mg/kg/injection, schedule: Q07DX002 (ip), vehicle: suspension in saline) 95 % of control; (dose: 3.13 mg/kg/injection, schedule: Q07DX002 (ip), vehicle: suspension in saline) 95 % of control; (dose: 6.25 mg/kg/injection, schedule: Q07DX002 (ip), vehicle: saline) 77 % of control. Also, the T/C is, setting by setting: (dose: 6.25 mg/kg/injection, schedule: Q07DX002 (ip), vehicle: suspension in saline) 85 % of control; (dose: 12.5 mg/kg/injection, schedule: Q07DX002 (ip), vehicle: saline) 69 % of control; under setting [1], 12 % of control; (dose: 25.0 mg/kg/injection, schedule: Q07DX003 (ip), vehicle: saline) 32 % of control.
For `CN=C(N)N/N=C(\C)c1ccc2c(c1)Cc1cc(/C(C)=N/NC(N)=NC)ccc1-2`, the T/C is 104 % of control (dose: 0.75 mg/kg/injection, schedule: Q07DX002 (ip), vehicle: saline with Tween-80) and 115 % of control (dose: 3.0 mg/kg/injection, schedule: Q07DX002 (ip), vehicle: saline with Tween-80).
